From US20060069132A1, “Azolecarboxamide herbicides” (priority 2004, published 2006)

Experiments:
ducksalad [1] = assay: Test C flooded paddy test; assay type: in vivo, Heteranthera limosa; conditions: for Plant response rating, Ducksalad: 500 g ai/ha, visual rating after 12 to 14 days
large crabgrass = assay: Test B pre-/postemergence herbicide test; assay type: in vivo, Digitaria sanguinalis; conditions: for Plant response rating (0 to 100 scale), Crabgrass, Large: 0 is no effect, preemergence
Procedure, shortened: (§1)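 Seeds were planted and treated preemergence with compounds formulated in a non-phytotoxic solvent mixture containing surfactant, while plants at the 1- to 4-leaf stage (2 to 18 cm) received postemergence sprays. Flooded paddy plants were grown to the 2-leaf stage. After 13 to 15 days in a greenhouse, injury was visually rated 0–100 against untreated controls.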

barnyardgrass [2] = assay: Test C flooded paddy test; assay type: in vivo, Echinochloa crus-galli; conditions: for Plant response rating, Barnyardgrass: 500 g ai/ha, visual rating after 12 to 14 days
Procedure, shortened: (§2)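 Plants were grown to the 1- to 4-leaf stage (2–18 cm) and then treated postemergence, or grown to the 2-leaf stage for the flooded paddy test. They were held in a greenhouse for 12 to 14 days and then scored by eye against controls, where 0 is no effect and 100 is complete control.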

giant foxtail = assay: Test B pre-/postemergence herbicide test; assay type: in vivo, Setaria faberi; conditions: for Plant response rating (0 to 100 scale), Foxtail, Giant: 0 is no effect, preemergence
Procedure, shortened: as §1

lambsquarters = assay: Test B pre-/postemergence herbicide test; assay type: in vivo, Chenopodium album; conditions: for Plant response rating (0 to 100 scale), Lambsquarters: 0 is no effect, 100 is complete control, preemergence; for Lambsquarters plant response rating: scale 0 (no effect) to 100 (complete control)
Procedure, shortened: as §1

wheat = assay: Test B postemergence herbicide test; assay type: in vivo, Triticum aestivum; parameters: key to Wheat plant response rating: 0 = no effect, 100 = complete control
Procedure, shortened: (§3)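 Greenhouse test; postemergence application to plants at 1–4 leaves (2–18 cm); paddy species at 2 leaves; evaluated visually vs controls at 13–15 days; scale 0–100 (100 = complete control).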

rice [3] = assay: Test C flooded paddy test; assay type: in vivo, Oryza sativa; conditions: for Plant response rating, Rice: 500 g ai/ha, visual rating after 12 to 14 days
Procedure, shortened: as §2

barnyardgrass [4] = assay: Test B flooded paddy test; assay type: in vivo, Echinochloa crus-galli; conditions: 1000 g ai/ha, scale 0 to 100 (0 no effect, 100 complete control)
Procedure, shortened: (§4)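 Postemergence plants were sprayed with formulated test chemicals at 2 to 18 cm height (1- to 4-leaf stage); paddy species were grown to the 2-leaf stage. After 13 to 15 days in a greenhouse, injury was rated visually against untreated controls on a 0–100 scale (0 = no effect, 100 = complete control).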

Surinam grass = assay: Test B pre-/postemergence herbicide test; assay type: in vivo, Urochloa decumbens; conditions: for Plant response rating (0 to 100 scale), Surinam Grass: 0 is no effect, 100 is complete control, preemergence; for Surinam Grass plant response rating: scale 0 (no effect) to 100 (complete control)
Procedure, shortened: as §1

wild oat = assay: Test B postemergence herbicide test; assay type: in vivo, Avena fatua; conditions: scale 0 (no effect) to 100 (complete control)
Procedure, shortened: as §3

morningglory = assay: Test B pre-/postemergence herbicide test; assay type: in vivo, Ipomoea coccinea; conditions: for Plant response rating (0 to 100 scale), Morningglory: 0 is no effect, 100 is complete control, preemergence; for Morningglory plant response rating: scale 0 (no effect) to 100 (complete control)
Procedure, shortened: as §1

blackgrass = assay: Test B postemergence herbicide test; assay type: in vivo, Alopecurus myosuroides
Procedure, shortened: as §4

cocklebur = assay: Test B pre-/postemergence herbicide test; assay type: in vivo, Xanthium strumarium; conditions: for Plant response rating (0 to 100 scale), Cocklebur: 0 is no effect, preemergence
Procedure, shortened: as §1

velvetleaf = assay: Test B pre-/postemergence herbicide test; assay type: in vivo, Abutilon theophrasti; conditions: for Plant response rating (0 to 100 scale), Velvetleaf: 0 is no effect, 100 is complete control, preemergence; for Velvetleaf plant response rating: scale 0 (no effect) to 100 (complete control)
Procedure, shortened: as §1

pigweed = assay: Test B pre-/postemergence herbicide test; assay type: in vivo, Amaranthus retroflexus; conditions: for Plant response rating (0 to 100 scale), Pigweed: 0 is no effect, 100 is complete control, preemergence; for Pigweed plant response rating: scale 0 (no effect) to 100 (complete control)
Procedure, shortened: as §1

ducksalad [5] = assay: Test B flooded paddy test; assay type: in vivo, Heteranthera limosa; conditions: 1000 g ai/ha, scale 0 to 100 (0 no effect, 100 complete control)
Procedure, shortened: as §4

[6] = system: small flower umbrella sedge; assay: Test B flooded paddy test; assay type: in vivo, Cyperus difformis; conditions: 1000 g ai/ha, scale 0 to 100 (0 no effect, 100 complete control)
Procedure, shortened: as §4

[7] = system: smallflower umbrella sedge; assay: Test C flooded paddy test; assay type: in vivo, Cyperus difformis; conditions: for Plant response rating, Sedge, Umbrella: 500 g ai/ha, visual rating after 12 to 14 days
barnyardgrass [8] = assay: Test B pre-/postemergence herbicide test; assay type: in vivo, Echinochloa crus-galli; conditions: for Plant response rating (0 to 100 scale), Barnyardgrass: 0 is no effect, preemergence
Procedure, shortened: as §1

rice [9] = assay: Test B flooded paddy test; assay type: in vivo, Oryza sativa; conditions: 1000 g ai/ha, scale 0 to 100 (0 no effect, 100 complete control)
Procedure, shortened: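 Visual ratings, 0 (no effect) to 100 (complete control), made versus controls after 13–15 d greenhouse. Paddy plants treated at 2-leaf stage; postemergence plants at 1- to 4-leaf stage, 2–18 cm tall.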

corn = assay: Test B pre-/postemergence herbicide test; assay type: in vivo, Zea mays; conditions: for Plant response rating (0 to 100 scale), Corn: 0 is no effect, preemergence
Procedure, shortened: as §1

[10] = 125 g ai/ha, scale 0 to 100 (0 no effect, 100 complete control)
[11] = 250 g ai/ha, scale of 0 to 100, 0 is no effect, 100 is complete control
[12] = scale 0 to 100 (0 no effect, 100 complete control)
[13] = 125 g ai/ha, 100 is complete control
[14] = 125 g ai/ha, visual rating, scale 0 (no effect) to 100 (complete control), postemergence
[15] = postemergence, 500 g ai/ha, scale 0 to 100, 0 is no effect, 100 is complete control
[16] = 62 g ai/ha, scale 0 to 100 (0 no effect, 100 complete control)
[17] = 125 g ai/ha, visual rating, postemergence
[18] = 500 g ai/ha, scale 0 to 100, 0 no effect, 100 complete control, preemergence
[19] = Postemergence, 500 g ai/ha, scale 0 (no effect) to 100 (complete control)

C=CCNC(=O)c1ccc(F)c(NC(=O)c2nn(C(C)(C)C)nc2CC)c1 [Compound 383]
Ducksalad plant response rating (ducksalad [1]; 62 g ai/ha, scale 0 to 100): 0
Ducksalad plant response rating (ducksalad [1]; [10]): 45
Ducksalad plant response rating (ducksalad [1]; [11]): 45
Plant response rating, Ducksalad (ducksalad [1]; [12]): 95
Plant response rating (0 to 100 scale), Crabgrass, Large (large crabgrass; [13]): 50
Crabgrass, Large plant response rating (large crabgrass; [14]): 0
Crabgrass, Large plant response rating (large crabgrass; [15]): 10
Barnyardgrass plant response rating (barnyardgrass [2]; [16]): 0
Barnyardgrass plant response rating (barnyardgrass [2]; [10]): 0
Barnyardgrass plant response rating (barnyardgrass [2]; [11]): 15
Plant response rating, Barnyardgrass (barnyardgrass [2]; [12]): 40
Plant response rating (0 to 100 scale), Foxtail, Giant (giant foxtail; [13]): 10
Foxtail, Giant plant response rating (giant foxtail; [14]): 0
Foxtail, Giant plant response rating (giant foxtail; [15]): 0
Plant response rating (0 to 100 scale), Lambsquarters (lambsquarters; 125 g ai/ha): 40
Lambsquarters plant response rating (lambsquarters; [17]): 20
Lambsquarters plant response rating (lambsquarters; Postemergence, 500 g ai/ha): 30
Wheat plant response rating (wheat; [14]): 0
Wheat plant response rating (wheat; [18]): 10
Wheat plant response rating (wheat; [19]): 0
Rice plant response rating (rice [3]; 62 g ai/ha, scale 0 to 100): 0
Rice plant response rating (rice [3]; [10]): 5
Rice plant response rating (rice [3]; [11]): 35
Plant response rating, Rice (rice [3]; [12]): 50
Barnyardgrass plant response rating (barnyardgrass [4]): 30
Plant response rating (0 to 100 scale), Surinam Grass (Surinam grass; 125 g ai/ha): 10
Surinam Grass plant response rating (Surinam grass; [17]): 10
Surinam Grass plant response rating (Surinam grass; Postemergence, 500 g ai/ha): 20
Oat, Wild plant response rating (wild oat; [17]): 0
Oat, Wild plant response rating (wild oat; Postemergence, 500 g ai/ha): 20
Plant response rating (0 to 100 scale), Morningglory (morningglory; 125 g ai/ha): 0
Morningglory plant response rating (morningglory; [17]): 10
Morningglory plant response rating (morningglory; Postemergence, 500 g ai/ha): 10
Blackgrass plant response rating (blackgrass; [14]): 0
Blackgrass plant response rating (blackgrass; [15]): 20
Plant response rating (0 to 100 scale), Cocklebur (cocklebur; [13]): 0
Cocklebur plant response rating (cocklebur; [14]): 0
Cocklebur plant response rating (cocklebur; [15]): 10
Plant response rating (0 to 100 scale), Velvetleaf (velvetleaf; 125 g ai/ha): 10
Velvetleaf plant response rating (velvetleaf; [17]): 10
Velvetleaf plant response rating (velvetleaf; Postemergence, 500 g ai/ha): 40
Plant response rating (0 to 100 scale), Pigweed (pigweed; 125 g ai/ha): 0
Pigweed plant response rating (pigweed; [17]): 20
Pigweed plant response rating (pigweed; Postemergence, 500 g ai/ha): 30
Ducksalad plant response rating (ducksalad [5]): 70
Sedge, Umbrella plant response rating [6]: 80
Sedge, Umbrella plant response rating ([7]; 62 g ai/ha, scale 0 to 100): 0
Sedge, Umbrella plant response rating [7, 10]: 45
Sedge, Umbrella plant response rating [7, 11]: 65
Plant response rating, Sedge, Umbrella [7, 12]: 90
Plant response rating (0 to 100 scale), Barnyardgrass (barnyardgrass [8]; [13]): 10
Barnyardgrass plant response rating (barnyardgrass [8]; [14]): 0
Barnyardgrass plant response rating (barnyardgrass [8]; [15]): 0
Rice plant response rating (rice [9]): 60
Plant response rating (0 to 100 scale), Corn (corn; [13]): 0
Corn plant response rating (corn; [14]): 0
Corn plant response rating (corn; [15]): 0

Cc1nn(C(C)C)nc1C(=O)Nc1cccc(C(=O)N2CC=CC2)c1 [Compound 406]
Ducksalad plant response rating (ducksalad [1]; 62 g ai/ha, scale 0 to 100): 20
Ducksalad plant response rating (ducksalad [1]; [10]): 20
Ducksalad plant response rating (ducksalad [1]; [11]): 50
Plant response rating, Ducksalad (ducksalad [1]; [12]): 75
Plant response rating (0 to 100 scale), Crabgrass, Large (large crabgrass; [13]): 90
Crabgrass, Large plant response rating (large crabgrass; [14]): 10
Crabgrass, Large plant response rating (large crabgrass; [19]): 20
Barnyardgrass plant response rating (barnyardgrass [2]; [16]): 10
Barnyardgrass plant response rating (barnyardgrass [2]; [10]): 25
Barnyardgrass plant response rating (barnyardgrass [2]; [11]): 30
Plant response rating, Barnyardgrass (barnyardgrass [2]; [12]): 40
Plant response rating (0 to 100 scale), Foxtail, Giant (giant foxtail; [13]): 20
Foxtail, Giant plant response rating (giant foxtail; [14]): 30
Foxtail, Giant plant response rating (giant foxtail; [19]): 40
Plant response rating (0 to 100 scale), Lambsquarters (lambsquarters; 125 g ai/ha): 90
Lambsquarters plant response rating (lambsquarters; [17]): 50
Lambsquarters plant response rating (lambsquarters; Postemergence, 500 g ai/ha): 60
Wheat plant response rating (wheat; [14]): 0
Wheat plant response rating (wheat; [18]): 40
Wheat plant response rating (wheat; [19]): 0
Rice plant response rating (rice [3]; 62 g ai/ha, scale 0 to 100): 20
Rice plant response rating (rice [3]; [10]): 35
Rice plant response rating (rice [3]; [11]): 40
Plant response rating, Rice (rice [3]; [12]): 45
Barnyardgrass plant response rating (barnyardgrass [4]): 90
Plant response rating (0 to 100 scale), Surinam Grass (Surinam grass; 125 g ai/ha): 20
Surinam Grass plant response rating (Surinam grass; [17]): 0
Surinam Grass plant response rating (Surinam grass; Postemergence, 500 g ai/ha): 20
Oat, Wild plant response rating (wild oat; [17]): 0
Oat, Wild plant response rating (wild oat; Postemergence, 500 g ai/ha): 10
Plant response rating (0 to 100 scale), Morningglory (morningglory; 125 g ai/ha): 10
Morningglory plant response rating (morningglory; [17]): 20
Morningglory plant response rating (morningglory; Postemergence, 500 g ai/ha): 60
Blackgrass plant response rating (blackgrass; [14]): 10
Blackgrass plant response rating (blackgrass; [19]): 20
Plant response rating (0 to 100 scale), Cocklebur (cocklebur; [13]): 0
Cocklebur plant response rating (cocklebur; [14]): 20
Cocklebur plant response rating (cocklebur; [19]): 50
Plant response rating (0 to 100 scale), Velvetleaf (velvetleaf; 125 g ai/ha): 10
Velvetleaf plant response rating (velvetleaf; [17]): 20
Velvetleaf plant response rating (velvetleaf; Postemergence, 500 g ai/ha): 30
Plant response rating (0 to 100 scale), Pigweed (pigweed; 125 g ai/ha): 50
Pigweed plant response rating (pigweed; [17]): 40
Pigweed plant response rating (pigweed; Postemergence, 500 g ai/ha): 50
Ducksalad plant response rating (ducksalad [5]): 90
Sedge, Umbrella plant response rating [6]: 90
Sedge, Umbrella plant response rating ([7]; 62 g ai/ha, scale 0 to 100): 75
Sedge, Umbrella plant response rating [7, 10]: 75
Sedge, Umbrella plant response rating [7, 11]: 75
Plant response rating, Sedge, Umbrella [7, 12]: 75
Plant response rating (0 to 100 scale), Barnyardgrass (barnyardgrass [8]; [13]): 40
Barnyardgrass plant response rating (barnyardgrass [8]; [14]): 10
Barnyardgrass plant response rating (barnyardgrass [8]; [19]): 20
Rice plant response rating (rice [9]): 60
Plant response rating (0 to 100 scale), Corn (corn; [13]): 0
Corn plant response rating (corn; [14]): 0
Corn plant response rating (corn; [19]): 10
